Measured values taken from ChEMBL document CHEMBL1221329, “Identification of a novel NR2B-selective NMDA receptor antagonist using a virtual screening approach” (Bioorg Med Chem Lett, 2010).

Columns and labels:
[1] = target: T1, Glutamate NMDA receptor; GRIN1/GRIN2B (Homo sapiens, UniProt Q05586+Q13224); assay: Ratio of compound IC50 to ifenprodil IC50 for wild type NR1/NR2B receptor by radioligand binding assay; format: protein-complex assay
[2] = target: T1, Glutamate NMDA receptor; GRIN1/GRIN2B; assay: Antagonist activity at wild type NR1/NR2B receptor expressed in Xenopus oocytes assessed as ratio of residual current induced by agonist in presence of compound to residual current induced by agonist alone at 10 uM by two-electrode voltage-clamp method; format: functional, cell-based; conditions: Oocyte
[3] = Antagonist activity at NR1/NR2B NTD truncated mutant receptor expressed in Xenopus oocytes assessed as ratio of residual current induced by agonist in presence of compound to residual current induced by agonist alone at 10 uM by two-electrode voltage-clamp method; format: functional, Oocyte
[4] = target: T1, Glutamate NMDA receptor; GRIN1/GRIN2B; assay: Antagonist activity at wild type NR1/NR2B receptor expressed in Xenopus oocytes assessed as inhibition of agonist-induced current amplitude by two-electrode voltage-clamp method; format: functional, cell-based, Oocyte
[5] = target: T1, Glutamate NMDA receptor; GRIN1/GRIN2B; assay: Antagonist activity at wild type NR1/NR2B receptor expressed in Xenopus oocytes assessed as inhibition of agonist-induced current amplitude at 10 uM by two-electrode voltage-clamp method; format: functional, cell-based; conditions: Oocyte
[6] = target: T2, Glutamate NMDA receptor; GRIN1/GRIN2A (Homo sapiens) (UniProt Q05586+Q12879); assay: Antagonist activity at wild type NR1/NR2A receptor expressed in Xenopus oocytes assessed as ratio of residual current induced by agonist in presence of compound to residual current induced by agonist alone at 10 uM by two-electrode voltage-clamp method; format: functional, cell-based; conditions: Oocyte
[7] = Antagonist activity at NR1/NR2B NTD truncated mutant receptor expressed in Xenopus oocytes assessed as inhibition of agonist-induced current amplitude at 10 uM by two-electrode voltage-clamp method; format: functional; conditions: Xenopus laevis, Oocyte
[8] = target: T2, Glutamate NMDA receptor; GRIN1/GRIN2A (Homo sapiens); assay: Antagonist activity at wild type NR1/NR2A receptor expressed in Xenopus oocytes assessed as inhibition of agonist-induced current amplitude at 10 uM by two-electrode voltage-clamp method; format: functional, cell-based; conditions: Oocyte
[9] = target: T1, Glutamate NMDA receptor; GRIN1/GRIN2B; assay: Ratio of compound IC50 to ifenprodil IC50 for wild type NR1/NR2B receptor expressed in Xenopus oocytes; format: cell-based; conditions: Oocyte

Compound	Ratio IC50 [1]	Ratio [2]	Ratio [3]	Ratio [6]	other results
O=C1CNC(=O)N1CCCCCN1CCC(Cc2ccccc2)CC1	440				
C[C@@H](CN1CCC(Cc2ccccc2)CC1)[C@@H](O)c1ccc(O)cc1	0.3				
COc1cc(/C=C2\SC(N3CCN(c4ccc(C)c(Cl)c4)CC3)=NC2=O)ccc1O		0.9	0.97		
Nc1ccc(C#CCCN2CCC(Cc3ccccc3)CC2)cc1	4				
O=C1N=C(N2CCN(c3ccc(F)cc3)CC2)S/C1=C\c1ccc(O)cc1		0.75	0.96		IC50 [4]: 13 µM
O=C1N=C(N2CCN(Cc3ccccc3)CC2)S/C1=C\c1ccccc1		0.95	0.97		
COc1cc(/C=C2/SC(N3CCN(Cc4ccccc4)CC3)=NC2=O)ccc1O		0.61	0.97		IC50 [4]: 11 µM
O=C(CN1CCc2[nH]c3ccccc3c2C1)c1c[nH]c2ccccc12		0.9	0.94	0.96	inhibition [5]: < 20%
COc1cc(/C=C2\SC(N3CCN(c4ccc(C)cc4)CC3)=NC2=O)ccc1O		0.95	0.97		
C(#Cc1ccccc1)CCN1CCC(Cc2ccccc2)CC1	43				
O=c1[nH]c2cc([S+]([O-])CCN3CCC(Cc4ccc(F)cc4)CC3)ccc2o1 (stereo unspecified)	0.03				
CC(=O)Nc1ccc2c(c1)CN(Cc1ccc(Cl)cc1)CO2		0.83	0.88	0.77	inhibition [5]: < 20%
O=C1N=C(N2CCN(Cc3ccccc3)CC2)S/C1=C/c1ccc(O)cc1		0.15	0.96	0.9	IC50 [4]: 1.8 µM; inhibition at 10 µM [7]: 6%; inhibition [8]: 6%
Oc1nc2cc(C#CCN3CCC(Cc4ccccc4)CC3)ccc2[nH]1	0.048				
Nc1ccc(N2CCN(Cc3ccccc3Cl)CC2)cc1		0.98	0.98	0.97	inhibition [5]: < 20%
Oc1nc2cc(C#CCN3CCC(=Cc4ccc(F)cc4)CC3)ccc2[nH]1	2.5				
COc1cc(CN2CCN(Cc3cccc(C)c3)CC2)cc(OC)c1O		0.96	0.97	0.98	inhibition [5]: < 20%
O=C1N=C(N2CCN(Cc3ccccc3)CC2)S/C1=C\c1ccc(O)cc1		0.22	0.96	0.94	IC50 [4]: 2.7 µM; inhibition at 10 µM [7]: 4%; inhibition [5]: 0.92%; Ratio IC50 [9]: 10; inhibition [8]: 4%
COc1cc(/C=C2\SC(N3CCN(c4cccc(C)c4)CC3)=NC2=O)ccc1O		0.95	0.96		

Compound	Ratio IC50 [1]	Ratio [2]	Ratio [3]	Ratio [6]	other results
CCN1CCN(C2=NC(=O)/C(=C/c3ccc(O)cc3)S2)CC1		0.93	0.96		
N=C1/C(=C/c2ccc(O)cc2)C(=O)N=C2SC(Cc3ccc(Cl)cc3)=NN12		0.9	0.97	0.99	inhibition [5]: < 20%
O=C1CNC(=O)N1CCCN1CCC(Cc2ccccc2)CC1	250				
O=C1N=C(N2CCN(c3ccccc3)CC2)S/C1=C\c1ccc(O)cc1		0.75	0.96	0.88	inhibition at 10 µM [7]: 25%; inhibition [8]: 25%
O=C1N=C(N2CCN(c3ccccc3)CC2)S/C1=C/c1ccc(O)cc1		0.74	0.96		
CCN(CC)CCCOC(=O)c1ccc(O)cc1O		0.94	0.97	0.97	inhibition [5]: < 20%
CC(=O)Nc1ccc(N2C(=O)C[C@@H](N3CCc4[nH]c5ccccc5c4C3)C2=O)cc1		0.97	0.98	0.98	inhibition [5]: < 20%
O=C1N=C(N2CCN(c3cccc(Cl)c3)CC2)S/C1=C\c1ccc(O)cc1		0.94	0.92	0.9	
COc1cc(/C=C2\SC(Nc3cccc(Cl)c3Cl)=NC2=O)ccc1O		0.925	0.96	0.97	inhibition [5]: < 20%
Oc1ccc2[nH]c3c(c2c1)CN(CCCCc1ccccc1)CC3	0.45				
Oc1ccc2c(c1)OC[C@@H](N1CCC(O)(c3ccccc3)CC1)[C@H]2O	11				
O=c1[nH]c2ncc(C#CCN3CCC(Cc4ccccc4)CC3)cc2o1	0.45				
O=C1N=C(N2CCN(Cc3ccccc3)CC2)S/C1=C\c1ccccc1O		0.96	0.96		
Oc1ccc(CCCCN2CCc3c([nH]c4ccccc34)C2)cc1	5				
Cc1nnc(SCCCN2CCC(Cc3ccccc3)CC2)s1	58				
Oc1nc2cc(C#CCN3CCC(Cc4ccc(F)cc4)CC3)c[nH]c-2n1	0.03				
C(#Cc1ccc2[nH]ccc2c1)CN1CCC(=Cc2ccccc2)CC1	140				
O=C1N=C(N2CCN(Cc3ccccc3)CC2)S/C1=C\c1ccc(O)cc1O		0.18	0.92	0.92	IC50 [4]: 1.65 µM; inhibition at 10 µM [7]: 6%; inhibition [8]: 6%
Cn1c(O)nc2cc(C#CCN3CCC(Cc4ccccc4)CC3)ccc21	560				
